Experimental data taken from a melting point compilation (Tetko et al.; mined from patent text by program, amines drawn as free bases though some values may be those of a salt).

Row | SMILES | melting point [°C]
1 | O=C(O)c1c(F)cccc1-c1ccccc1 | 122 to 125
2 | N=C(NCCOc1cccc2[nH]c3ccccc3c12)c1cccs1 | 180 to 181
3 | COc1cc(C(O)Cc2ccccc2)ccc1OCc1ccccc1 (stereo not drawn) | 97 to 98
4 | S=C(NCc1ccccc1)N1CCc2c([nH]c3ccccc23)C1c1ccc2c(c1)OCO2 (stereo not drawn) | 205 to 207
5 | Cc1ccccc1Sc1cccc(C(C)C(=O)O)c1O (stereo not drawn) | 123 to 125
6 | O=C(O)c1cccc(-n2cnc3cc(-c4ccoc4)ccc32)c1 | 272 to 274
7 | COc1cc(O)c2c(c1C)C(=O)SCC(=O)N[C@@H](c1nc(C)no1)COC2 | 194 to 196
8 | COC(=O)[C@@H]1Cc2ccccc2N1C(=O)[C@H](CC(=O)OCc1ccccc1)NC(=O)C(F)(F)F | 88 to 90
9 | CCCCc1ncc(C=O)n1Cc1ccc(C(=O)OC)c(Cl)c1Cl | 94 to 96
10 | CC1(C)COC(c2ccccc2-c2ccc(CCl)cc2)=N1 | 72 to 75
11 | Cc1c(C(=O)O)nc2c(cc(C)c3nc(C(=O)O)c(C)c(O)c32)c1O | 205 to 206
12 | CCOCCn1c(N2CCCN(CCC3(c4cccc(Cl)c4)CCN(C(=O)c4cc(OC)c(OC)c(OC)c4)C3)CC2)nc2ccccc21 (stereo not drawn) | 66 to 78
13 | CC(=O)c1cc(S(N)(=O)=O)ccc1O | 197 to 199
14 | C(=C\c1nc(COc2ccc(CCCCCCn3ccnc3)cc2)co1)/c1ccccc1 | 108 to 109
15 | CSC(C(=O)c1cc(-c2ccccc2)on1)N(C)C (stereo not drawn) | 98 to 99.5
16 | CCOC(=O)Cc1ccc(-c2ccc(F)cc2F)c(F)c1 | 50 to 52
17 | CNC(=O)Nc1cccc(C(=S)NC(C)C)c1 | 175 to 178
18 | CC(=O)Oc1cccc2c1C(=O)c1c(OC(C)=O)cc(C(=O)NOCc3ccccc3)cc1C2=O | 192 to 194
19 | C=CCOc1ccc(Br)cc1C(C)=NO | 110 to 111
20 | S=c1nc(-c2ccc(Cl)cc2Cl)[nH]n1Cc1ccccc1 | 169 to 170
21 | Cc1cc(C#N)cc(C(N)=O)c1NC(=O)c1cc(Br)nn1-c1ncccc1Cl | > 255

Row | SMILES | melting point [°C]
22 | CC1(C)Cc2cc([N+](=O)[O-])cc(OCC3CO3)c2O1 (stereo not drawn) | 108
23 | OCc1cn(-c2ccc(Cl)c(Cl)c2)cn1 | 146 to 147
24 | COc1ccc(C=C(c2ccc(OC)cc2)N(C)C)cc1 | 67 to 69
25 | Cc1cc(CNC2CCCN(C(=O)c3ccc(Nc4nccc(Nc5ccc(F)cc5)n4)cc3)C2)no1 (stereo not drawn) | 190 to 191
26 | COc1ccc(-c2cc(C(O)C(F)(F)F)[nH]c2-c2ccc(OC)cc2)cc1 (stereo not drawn) | 84 to 86
27 | CC1C(=O)N(c2ccc(Cl)cc2)C(=S)N1c1ccc(Cc2ccccc2)cc1 (stereo not drawn) | 144
28 | CCCCn1cc(/C=C(\Cc2cc3c(cc2OC)OCO3)C(=O)O)c(-c2ccc(OC)cc2OCc2ccccc2C(=O)O)n1 | 226 to 227
29 | COc1cc(CC(=O)NCCCc2ccc(C)c(C)c2)ccc1OCCN(CCO)CCO | 54 to 58
30 | CSCC(C)(C)NC(=O)c1c(I)cccc1C(=O)Nc1ccc(Cn2nc(C(F)(F)F)cc2C(F)(F)F)cc1C | 83 to 87
31 | O=C(NN1CCOCC1)c1ccc(O)c(Br)c1 | 216 to 218
32 | CCOC(=O)C(C)OCc1cc2nc(Cl)ccc2n1S(=O)(=O)c1ccc2nsnc2c1 (stereo not drawn) | 77 to 79
33 | CC(C)(O)C#Cc1ncn2c1[C@@H]1CCCN1C(=O)c1ccccc1-2 | 128
34 | CC(C)(C)C(O)C(CC1CCCCC1)n1cncn1 (stereo not drawn) | 104 to 107
35 | CC(C)(C)OC(=O)NNC(=O)c1ccc2ncsc2c1 | 128 to 129
36 | CCc1nc(CO)n(CC)c1Sc1cc(C#N)cc(C#N)c1 | 141 to 143
37 | CCC(=NC#N)N(C)C(C)c1ccc(Cl)cc1Cl (stereo not drawn) | 148
38 | Cc1cccc2c(=O)[nH]c(C3CCC(N(C)C)CC3)nc12 (stereo not drawn) | 181 to 183
39 | COc1cc(Cl)ccc1C(C)=O | 55
40 | CC1(C)NS(=O)(=O)c2cc([N+](=O)[O-])ccc21 | 187
41 | Nc1ccc2oc(-c3ccccc3)c(O)c(=O)c2c1 | 211 to 212
42 | CC(=O)Nc1ncc(C#Cc2cnn3c(C(F)(F)F)cc(-c4ccc(C(F)(F)F)cc4)nc23)cn1 | 293

Row | SMILES | melting point [°C]
43 | Cc1noc(NS(=O)(=O)c2ccccc2-c2ccccc2)c1Cl | 132 to 134
44 | CSc1ncccc1NC(=O)CCCCCSc1nc2ccccc2s1 | 118 to 119
45 | C[C@@H](O)Cn1ccc2cc(Cl)c(F)cc21 | 108 to 110
46 | O=C1C(=Cc2ccccc2)CS(=O)CC1=Cc1ccccc1 (stereo not drawn) | 155 to 160
47 | CC(C)C(=O)Nc1ccoc1 | 120
48 | CCNC(=O)Nc1nc2cc(-c3cccnc3)cc(N3CCOCC3)n2n1 | 298 to 300
49 | CCOC(=O)c1ccsc1NC(=O)NCCN1CCN(c2ccccc2)CC1 | 117 to 120
50 | CCC(CC)N(Cc1ccc(S(C)(=O)=O)cc1)S(=O)(=O)c1ccc(Cl)cc1 | 166 to 168
51 | CC(C)c1cc2ncsc2cc1SC1=C(O)CC(CCc2ccc(F)cc2)(C(C)C)OC1=O (stereo not drawn) | 104 to 105
52 | CC1=NC2CN=C(c3ccccc3)c3cc(Cl)ccc3C2C(=O)N1 (stereo not drawn) | 155 to 160
53 | Cc1oc(-c2ccccc2)nc1COc1ccc(CCc2oc(-c3ccccc3)nc2CCC(=O)O)cc1 | 110 to 111
54 | CC1(C)c2c(ccc3cc(C#N)c(Cn4cncn4)cc23)OC1O (stereo not drawn) | 219 to 222
55 | CCCCCCCCCCCCCCCCCCOc1cc(N)cc(OCCCCC(=O)OC)c1 | 57 to 59
56 | O=C(O)c1ccc(CCCC2SCC(=O)N2CCCC2(O)CCCCC2)cc1 (stereo not drawn) | 118 to 121
57 | N#Cc1ccccc1OCC1CN=C(N)O1 (stereo not drawn) | 146
58 | CC(C)OC(=O)Cc1nc(-c2ccc(F)cc2)oc1-c1ccsc1 | 108 to 110
59 | O=C(O)c1ccc(-n2c(-c3ccccc3)cc3c2CCCC3)cc1O | 193 to 195
60 | O=C1CCCSC1C(=O)c1ccc([N+](=O)[O-])cc1Cl (stereo not drawn) | 59.5 to 62.5
61 | O=C(NCCN1CCC(C(=O)c2ccc(F)cc2)CC1)c1cccnc1 | 118
62 | N#Cc1ccc(CC(=O)Cc2ccc(C#N)cc2)cc1 | 149 to 150
63 | CC(C)(C)c1cc(SCCCC(=O)O)cc(C(C)(C)C)c1O | 112 to 114

Continued, values first:

Row | melting point [°C] | SMILES
64 | 65 to 67 | CCNC(=S)C1=CC(CF)(CF)Oc2ccc(C(F)(F)F)cc21
65 | 226 to 229 | CC(C)NC(=O)c1c(NC(=O)c2cc(C(F)(F)F)nn2-c2ncccc2Cl)c(C#N)cc2cn[nH]c12
66 | 251 to 253 | C/C(=C(\C#N)C(=S)/N=C/N(C)C)N1CCCN(c2ccc(C(F)(F)F)cc2)CC1
67 | 57 to 58 | CCCCCCC#CCC#CCC#CCCCCCCC(=O)O
68 | 182 to 184 | CON=C(C)CCc1nc2c(N)nc3ccccc3c2n1CC(C)(C)O
69 | 295 to 298 | CC(C)c1n[nH]c2c(O)nc(O)nc12
70 | 68 to 70 | CCCC=C(NC(=O)c1ccccc1)C(=O)OCC
71 | 112 to 114 | CCNS(=O)(=O)CC(=O)C=C(C)N
72 | 141 to 142 | CNC(=O)CC1c2cc(C#N)ccc2OC(C)(C)C1O (stereo not drawn)
73 | 175 to 178 | COc1ccc(Br)cc1-c1nc2ccc(OC(F)(F)F)cc2[nH]1
74 | 169 to 171 | CNC(=O)C(CCO)C1(C)OCCc2c1[nH]c1ccccc21 (stereo not drawn)
75 | > 285 | COc1ccc(/C=C/c2nc3cc(C(=O)O)ccc3[nH]2)cc1OC
76 | 100 to 102 | COC(=O)c1coc2c1C(=O)CCC2
77 | 173 to 174 | O=C(Nc1cccc(C(F)(F)F)c1)N1COc2cc(O)ccc21
78 | 68 to 70 | Cc1cccc(C2OCC(OCc3ccccc3)CO2)c1 (stereo not drawn)
79 | 168 to 170 | CC#CN(NC(=O)c1ccc(Cl)c(S(N)(=O)=O)c1)c1ccccc1
80 | 208 to 213 | COc1ccc(-c2ccc3c(c2)S(=O)(=O)NC(C2CCCCC2)N3)c(OC)c1 (stereo not drawn)
81 | 102 to 105 | Cc1nnc(COc2cccc(NC(=O)N(C)C)c2)o1
82 | 119 to 122 | CC(C)c1nc(CCOCc2ccccc2)n(Cc2cccc([N+](=O)[O-])c2)c1Sc1cc(Cl)cc(Cl)c1
83 | 175 to 178 | O=C(CBr)Nc1ccc([N+](=O)[O-])cc1

Row | melting point [°C] | SMILES
84 | 67 to 68 | C=CCNc1cc(Oc2ccccc2)ccc1[N+](=O)[O-]
85 | 168 to 170 | CCOC(=O)c1cc(C(=O)c2cccc(S(=O)(=O)F)c2)sc1N
86 | 270 to 273 | C=C(C)c1nc2cc3c(cc2[nH]1)NC(=O)C3(C)C
87 | 150 to 152 | Cc1cn(-c2ccc(NC(=O)c3ccc(Cl)c(C#Cc4ccc(NC5CC5)nn4)c3)cc2C(F)(F)F)cn1
88 | 284 to 285 | Cn1cccc1C(=O)c1sc(Nc2ccc3[nH]cnc3c2)nc1N
89 | 125 to 129 | Cn1cc(C(F)(F)F)ccc1=O
90 | 85 to 88 | CCCc1c(OCC(O)CSc2ccc(CC(=O)OC)c(Cl)c2Cl)ccc(C(C)=O)c1O (stereo not drawn)
91 | 151 to 152 | CCOC(=O)N1CCC(n2nc(Cc3ccc(F)cc3)c3ccccc3c2=O)CC1
92 | 126 to 128 | N#Cc1ccc(Sc2cccc3cnccc23)c(Cl)c1
93 | 193 to 194 | CC1(C)C(=O)Nc2ccc(-c3ccc(C#N)o3)cc21
94 | 134 to 135 | CCOC(=O)c1nc(N)sc1C(=O)CC
95 | 147 to 149 | CC(C)(C)CC(C)(C)c1cc(-n2nc3ccc(-c4ccsc4)cc3n2)c(O)c(C(C)(C)c2ccccc2)c1
96 | 205 to 206 | Cc1ccc(C(=O)NC(NC(=S)Nc2ccccc2)C(F)(F)F)cc1 (stereo not drawn)
97 | 202 to 204 | Oc1ccc(-c2cc3cc(F)ccc3o2)cc1
98 | 198 to 200 | CCCCc1ncc(/C=C(\Cc2cccs2)C(=O)O)n1Cc1ccc([N+](=O)[O-])cc1
99 | 29.6 to 30.7 | C=CC(=O)OCCCCC[C@H]1CC[C@H](c2cccc(F)c2F)CC1
100 | 184 to 186 | O=C(O)Cc1ccc(NC(=O)C(COc2ccc(Cl)cc2)NS(=O)(=O)c2ccc(F)cc2)cc1 (racemic)
101 | 118 to 119 | C=CCc1cc2c(c(CC=C)c1O)CCC(=O)N2
102 | 161 to 162 | COC(=O)c1ccc(Cn2nc(C(C)(C)C)cc2O)cc1
103 | 32 to 33 | O=C(O)CCCCCCCCc1cccs1
